# Values joined by “and” are separate entries in the source; they are usually repeats but may differ in a detail not shown here. Equal entries are not always repeated.
# Assay: In vitro phase I metabolic stability in male SD rat hepatic microsomes
# Type: in vitro ADME
# Conditions: for Peak area ratio (test compound/testosterone-D3 (internal standard)), mean value: mean of triplicate; for Peak area ratio (test compound/testosterone-D3 (internal standard)): single replicates -1, -2, -3
# Method: Phase I metabolic stability kit (purchased from HUIZHI HEYUAN BIOTECHNOLOGY (BEIJING) CO., LTD), with the following components of the product:
# Positive substrate testosterone solution (10 mM): diluted with acetonitrile to prepare a 200 μM solution for later use; stop solution & internal standard (testosterone-D3): dissolved with acetonitrile to prepare a 5 ng/mL solution for later use.
# • 1) all components of the kit were thawed in an ice bath and placed on ice for later use; • 2) an incubation system (taking 200 μL system as an example) was prepared:
# • 3) 160 μL of pre-incubation solution B was added into the centrifuge tube containing 40 μL of pre-incubation solution A, uniform mixing was performed by pipetting three times, and the resulting mixture was immediately placed in a water bath at 37° C. for incubation and timing was started; • 4) at predetermined incubation time points (0, 5, 10, 15, 30, 45, 60 minutes), the incubation solution was quantitatively taken out, and 200 μL of stop solution (5 ng/mL testosterone-D3 in acetonitrile, pre-chilled at 4° C.) was added to terminate the reaction (stop solution volume: incubation system volume=1:1). Experimental samples were prepared in triplicate at each time point.
# To verify the validity of the experiment, a positive control group was established concurrently in the whole experiment to evaluate whether the incubation system functioned properly, with the preparation method as follows: the compound to be tested was replaced with the positive substrate testosterone (200 μM in acetonitrile) from the phase I metabolic stability kit, and the other components of the incubation system and experimental method were the same as those of the experimental group.
# The ratio of the chromatographic peak area of the compound to be tested to the chromatographic peak area of the testosterone-D3 (internal standard) was used as the calculated data. By taking the peak area ratio at time zero of the test compound as 100%, the remaining percentages were calculated by comparing the peak area ratio at each time point with the peak area ratio at time zero, and the natural logarithms of the remaining percentages of the substrate at each time point are then subjected to linear regression against the incubation times to obtain the slope k. Therefore, the in vitro metabolic half-life (T1/2) and intrinsic clearance (CLint) were calculated using the following formulas: […]
compound,measurement,setting,value
"C[C@]12CC[C@H]3[C@@H](CCC4=CC(=O)CC[C@@]43C)[C@@H]1CC[C@@H]2O [Positive control, testosterone]","Peak area ratio (test compound/testosterone-D3 (internal standard)), mean value",incubation time 0 min,20.01
same,Peak area ratio (test compound/testosterone-D3 (internal standard)),incubation time 0 min,20.12 and 19.58 and 20.33
same,"Peak area ratio (test compound/testosterone-D3 (internal standard)), mean value",incubation time 10 min,0.06
same,Peak area ratio (test compound/testosterone-D3 (internal standard)),incubation time 10 min,0.05 and 0.08 and 0.06
